# Reference: patent EP3566700A1, “AMBROXOL FOR DNA DAMAGE REPAIR DISEASE THERAPIES” (Universitat Autònoma de Barcelona, priority 2018, dated 2019)
# Columns and labels:
# Fanca-deficient mice [1] = assay: Telomere fluorescence analysis on spleen tissue sections by Q-FISH; assay type: in vivo; settings: for telomere length: compared with control treatment (water)
# Procedure: (§1) Fanca-deficient mice strain was Fanca^tm1Faw and genetic background 129P2/OlaHsd * FVB with exon deletion 4-7 (c.f. Cheng NC et al., "Mice with a targeted disruption of the Fanconi anemia homolog Fanca", Hum Mol Genet. 2000, vol. 9(12), pp. 1805-11). 30 male mice were randomized by age (12 to 16 weeks) and weight (25 grams on average) in three experimental groups (water, NAC and AMB).
# (§2) NAC (40mM) (used for comparative purposes) and Ambroxol (1mM) were administered in drinking water (filtered and UV irradiated) ad libitum. To monitor MN on blood cells (erythrocytes and reticulocytes) mice were tail bleeded on weeks 1, 2, 4, 6, 8, 12, 16 and 24. Hematological parameters and blood counts were also evaluated. At the end of the study mice were euthanized and bone marrow, blood and organ samples (spleen, lung, and liver) collected.
# Quantitative telomere fluorescence in situ hybridization (Q-FISH) was performed directly on spleen tissue sections as previously described (c.f. Flores I et al., "The longest telomeres: a general signature of adult stem cell compartments", Genes Dev. 2008; vol. 22(5), pp. 654-67). Spleen tissue was hybridized with the PNA telomeric oligonucleotide (CCCTTA)3 labeled with Cy3 (PE Biosystems). After that, digital images were acquired.
# Confocal microscopy was performed at room temperature with a laser-scanning microscope (TSC SP5) using a Plan Apo 63Å-1.40 NA oil immersion objective (HCX). Maximal projection of z-stack images generated using advanced fluorescence software (LAS) was analyzed with Definiens XD software package. DAPI images were used to detect telomeric signals inside each nucleus. To study telomere length, average intensity of individual telomeres of around 940 nuclei per mouse was analyzed. To study short telomeres, intensity of around 31,000 individual telomeres was studied per mouse. A total of 7 mice were studied in the control group and 10 mice in NAC or Ambroxol groups.
# [2] = test system: FANCA-deficient lymphoblastoid cell lines; assay: FCM assay: cell cycle analysis (cells in G2/M phase); assay type: cell-based, human; settings: three FANCA-deficient cell lines; basal around 20% without treatment
# FANCD2 ubiquitination = FANCD2 ubiquitination by Western blotting; assay type: cell-based, human; settings: two FANCA-deficient lymphoblastoid cell lines
# Procedure: To disregard a direct effect on FA/BRCA pathway, FANCD2 ubiquitination was analyzed by Western blotting in two different FANCA-deficient lymphoblastoid cell lines.
# Fanca-deficient mice [3] = assay: Chronic treatment of Fanca-deficient mice: survival and general health; assay type: in vivo
# Procedure: as §1, §2
# Fanca-deficient mice [4] = assay: Histopathology study of spleen, liver and lung; assay type: in vivo
# Procedure: as §1, §2
# A total of 7 mice were studied in the placebo (water) group and 10 mice in the NAC or Ambroxol treated groups. Samples (spleen, liver and lung) were fixed overnight in 10 % neutral buffered formalin, embedded in paraffin, sectioned in 3 µm thick and dried. Slides were dewaxed and re-hydrated through a series of graded ethanol until water and finally stained with hematoxilin-eosin (H-E). Photographs were taken using an Olympus DP73 digital camera and a Vanox AHBS3 Olympus microscope.
# [5] = affected mice/mice studied, H2O 0/7
# [6] = affected mice/mice studied, H2O 1/7
# [7] = affected mice/mice studied, H2O 2/7
compound,measurement,setting,value
"CC(=O)N[C@@H](CS)C(=O)O [NAC, N-acetylcysteine]",telomere length,Fanca-deficient mice [1]; one year of treatment,modest improvement
"Nc1c(Br)cc(Br)cc1CN[C@H]1CC[C@H](O)CC1 [Ambroxol, trans-4-(2-amino-3,5-dibromobenzylamino)cyclohexanol]",percentage of cells in G2/M phase in basal conditions,[2],lowered this percentage
same,FANCD2 ubiquitination,FANCD2 ubiquitination,unable to restore FANCD2 ubiquitination
same,improvement in telomere's length with respect to NAC,Fanca-deficient mice [1]; one year of treatment,about 5 fold
same,telomere length,Fanca-deficient mice [1]; one year of treatment,significant increase
same,length of short telomeres,Fanca-deficient mice [1]; untreated versus Ambroxol treated mice,significantly shorter in untreated mice
same,proportion of short telomeres respect the total number of telomeres,Fanca-deficient mice [1]; untreated versus treated mice,significantly bigger in untreated mice
same,survival at the end of the experiment,"Fanca-deficient mice [3]; 1 year, Ambroxol 1mM in drinking water ad libitum, 40 % of control mice alive",All mice from the Ambroxol group were alive and healthy
same,general health condition and survival,Fanca-deficient mice [3]; related to untreated mice,improvement
same,"Liver, Light/moderate: Steatosis",Fanca-deficient mice [4]; [5],2/10
same,"Lung, Light/moderate: Pleuritis",Fanca-deficient mice [4]; [5],1/10
same,"Liver, Light/moderate: Vascular congestion",Fanca-deficient mice [4]; [6],1/10
same,"Liver, Severe: Multiple myeloid precursor infiltration",Fanca-deficient mice [4]; [6],0/10
same,"Lung, Light/moderate: BALT activation",Fanca-deficient mice [4]; [6],1/10
same,"Lung, Light/moderate: Fibrosis",Fanca-deficient mice [4]; [6],0/10
same,"Lung, Light/moderate: Interstitial pneumonia",Fanca-deficient mice [4]; [6],5/10
same,"Lung, Severe: General vascular congestion",Fanca-deficient mice [4]; [6],0/10
same,"Lung, Severe: Myeloid-shape cellullar embolism",Fanca-deficient mice [4]; [6],0/10
same,"Lung, Severe: Osseous metaplasia",Fanca-deficient mice [4]; [6],0/10
same,"Spleen, Light/moderate: Lymphoid hyperplasia",Fanca-deficient mice [4]; [6],3/10
same,"Liver, Severe: Vesicular steatosis",Fanca-deficient mice [4]; [7],0/10
same,"Spleen, Severe: Spleen hyperplasia (likely linfoma)",Fanca-deficient mice [4]; [7],0/10
same,"Liver, Light/moderate: Chronic hepatitis (perivascular)","Fanca-deficient mice [4]; affected mice/mice studied, H2O 3/7",7/10
same,severe organ defects,Fanca-deficient mice [4]; end of experiment (1 year),no severe organ defects
